Results as given in patent US20210002262A1, “CYANOPYRROLIDINES AS USP30 INHIBITORS AND FIBROSIS TREATMENT” (MISSION THERAPEUTICS LIMITED, priority 2018, published 2021).
“Also recorded” adds a separate entry of the source.

Each molecule was assayed on Bleomycin-induced lung fibrosis (assay: Bleomycin-induced lung fibrosis model). Conditions: 100 mg/kg pirfenidone BID, oral, days 7 to 21, bleomycin 1.5 U/kg.
Protocol: Treatment group animals (n=10/group) received 1.5 U/kg of clinical bleomycin via oropharyngeal route on day 0 under inhalant anaesthesia. Animals were monitored for tolerance of the bleomycin administration procedure and subsequently bodyweights of all mice were recorded at least 3 times per week during the study. […] All treatments were administered orally.
At day 21, lungs were harvested from each animal and weighed, followed by fixation in 10% neutral buffered formalin (NBF) for histopathological analysis. The lung samples were processed and embedded with all lobes from each mouse in one paraffin block. Coronal sections through the four major lobes were stained with Masson's Trichrome. For each animal, consecutive lung fields were examined at 200×magnification in a raster pattern using a 20×objective lens and a 10×ocular lens. […] The Fibrotic Index was calculated as the sum of the modified Ashcroft field scores divided by the number of fields examined.
Work on `Cc1ccc(=O)n(-c2ccccc2)c1` [pirfenidone, reference compound] yielded an In life mortality of 0%.

These molecules were tested on diet-induced NAFLD/NASH (assay: Diet-induced model of NAFLD/NASH). Conditions: diet-induced NAFLD/NASH, P.O., 8 weeks; Elafibranor 30 mg/kg QD.
Type: in vivo, mice
Protocol: Mice were fed Amylin-diet (D09100301, Research Diets, US; 40% fat (18% trans-fat), 40% carbohydrate (20% fructose) and 2% cholesterol) for 37 weeks. Liver biopies were harvested and mice were randomization into treatment groups based on liver Colla1 quantification. Three weeks following biopsy surgery, study animals were dosed orally (P.O.) with either; Vehicle (0.5% HPMC/0.5% PVP/0.1% SDS nanosuspension), MT#1 @ 15 mg/kg QD or MT#1 @ […] QD […] or with Elafibranor @ 30 mg/kg QD (positive control) for eight (8) weeks. A control group of age- and sex-matched mice fed lean chow diet ad libitum were also administered vehicle (P.O) over the same 8 (eight) week period. Following the full dosing schedule, mice were sacrificed, whole livers resected and weighed, fixed in paraformaldehyde before being paraffin embedded. H&E stained slides were then prepared and the average % fractional area of lipid vacuoles (steatosis) determined for each section (@ 20×objective) using Visiomorph software (Visophram, Denmark). The average % fractional area was multiplied by the total liver weight to determine the total liver lipid content per animal. Values expressed as mean of n=9-12+SEM. Dunnett's test one-factor linear model. **: P<0.01, ***: P<0.001 compared to DIO-NASH Vehicle.
Summary of fibrosis stage scores of pre- and post-study liver biopsies harvested from the diet-induced NAFLD/NASH study. Fibrosis stage scores are determined by assessment of picosirius red stained liver sections for relative appearance and location of collagen staining, where; 0=No staining, 1=Perisinusoidal or periportal, 2=Perisinusoidal and periportal and […]=Bridging collagen staining observed. For each group of animals with higher (worsening), same or lower (improvement) in score at post-compared to pre-study is indicated by the height of the bar. One-sided Fisher's exact test with Bonferroni correction. No differences at significance level 0.05.
With `CSc1ccc(C(=O)/C=C/c2cc(C)c(OC(C)(C)C(=O)O)c(C)c2)cc1` [Elafibranor, reference compound] the “fibrotic stage scores (picosirius red stained liver sections, post- compared to pre-study biopsy)” value was “Neither MT#1 or Elafibranor (positive control) significantly improved; also recorded: failed to statistically improve” and the liver steatosis was “significantly reducing”.

The molecules below were run against T1, USP30 (Homo sapiens, UniProt Q70CQ3) (assay: USP30 biochemical IC50 assay). Conditions: not given.
T1 sequence (Q70CQ3 1-517): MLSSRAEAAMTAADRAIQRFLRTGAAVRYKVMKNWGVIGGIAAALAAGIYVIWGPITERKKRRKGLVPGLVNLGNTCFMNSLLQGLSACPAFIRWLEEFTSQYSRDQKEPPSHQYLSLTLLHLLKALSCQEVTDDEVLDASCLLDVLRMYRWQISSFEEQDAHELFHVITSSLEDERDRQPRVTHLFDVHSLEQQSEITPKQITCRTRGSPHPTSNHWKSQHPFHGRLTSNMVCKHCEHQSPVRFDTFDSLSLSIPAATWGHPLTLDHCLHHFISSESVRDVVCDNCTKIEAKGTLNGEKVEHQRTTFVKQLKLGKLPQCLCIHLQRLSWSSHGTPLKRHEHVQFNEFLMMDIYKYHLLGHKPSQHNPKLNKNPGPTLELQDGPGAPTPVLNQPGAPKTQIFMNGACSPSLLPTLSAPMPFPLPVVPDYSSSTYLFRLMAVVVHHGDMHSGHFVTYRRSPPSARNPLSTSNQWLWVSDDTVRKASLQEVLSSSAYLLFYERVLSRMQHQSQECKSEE
Protocol: Dilution plates were prepared at 21 times the final concentration (2100 μM for a final concentration of 100 μM) in 50% DMSO in a 96-well polypropylene V-bottom plate (Greiner #651201). A typical 8-point dilution series would be 100, 30, 10, 3, 1, 0.3, 0.1, 0.03 μM final. Reactions were performed in duplicate in black 384 well plates (small volume, Greiner 784076) in a final reaction volume of 21 μl. Either 1 μl of 50% DMSO or diluted compound was added to the plate. USP30 was diluted in reaction buffer (40 mM Tris, pH 7.5, 0.005% Tween 20, 0.5 mg/ml BSA, 5 mM beta-mercaptoethanol) to the equivalent of 0.05 μl/well and 10 μl of diluted USP30 was added to the compound. Enzyme and compound were incubated for 30 min at room temp. Reactions were initiated by the addition of 50 nM of TAMRA labelled peptide linked to ubiquitin via an iso-peptide bond as fluorescence polarisation substrate. Reactions were read immediately after addition of substrate and following a 2-hour incubation at room temperature. Readings were performed on a Pherastar Plus (BMG Labtech). λ Excitation 540 nm; λ Emission 590 nm.
`C[C@@H]1C(CNC(=O)c2ncn(-c3cccc(C#N)c3)n2)CCN1C#N` (mixture of isomers) [Example 4, N-(((2R,3R)-1-cyano-2-methylpyrrolidin-3-yl)methyl)-1-(3-cyanophenyl)-1H-1,2,4-triazole-3-carboxamide and N-(((2R,3S)-1-cyano-2-methylpyrrolidin-3-yl)methyl)-1-(3-cyanophenyl)-1H-1,2,4-triazole-3-carboxamide] showed an IC50 of 0.01 to 0.1 µM.
In the case of `N#CN1CCC(CNC(=O)c2ncn(-c3ccccc3)n2)C1` (stereo not shown) [Example 3, N-((1-cyanopyrrolidin-3-yl)methyl)-1-phenyl-1H-1,2,4-triazole-3-carboxamide], the IC50 is reported as 0.1 to 1 µM.
For `N#CN1CC[C@H](CNC(=O)c2cn(-c3cccc(Cl)c3)nn2)C1` [Example 6, (R)-1-(3-chlorophenyl)-N-((1-cyanopyrrolidin-3-yl)methyl)-1H-1,2,3-triazole-4-carboxamide], the IC50 was 0.1 to 1 µM.
`N#CN1CC[C@H](CNC(=O)c2cnn(-c3cccc(Cl)c3)n2)C1` [Example 7, (R)-2-(3-chlorophenyl)-N-((1-cyanopyrrolidin-3-yl)methyl)-2H-1,2,3-triazole-4-carboxamide] showed an IC50 of under 0.01 µM.

Same assay, conditions: Examples of WO 2017/103614
`N#CN1CC[C@H](CNc2ncc(-c3ccccc3)s2)C1` [Example 9, (R)-3-(((5-phenylthiazol-2-yl)amino)methyl)pyrrolidine-1-carbonitrile] gave an IC50 of 0.01 to 0.1 µM.
Work on `N#CN1CCC(CNC(=O)c2cnc(-c3ccccc3)o2)C1` (stereo not shown) [Example 20, N-((1-cyanopyrrolidin-3-yl)methyl)-2-phenyloxazole-5-carboxamide] yielded an IC50 of 0.1 to 1 µM.
For `N#CN1CCC(CNC(=O)c2cc(-c3ccccc3)no2)C1` (stereo not shown) [Example 21, N-((1-cyanopyrrolidin-3-yl)methyl)-3-phenylisoxazole-5-carboxamide], the IC50 was 0.1 to 1 µM.
With `N#CN1CCC(CNC(=O)c2cc(-c3ccccc3)[nH]n2)C1` (stereo not shown) [Example 22, N-((1-cyanopyrrolidin-3-yl)methyl)-5-phenyl-1H-pyrazole-3-carboxamide] the IC50 was 0.1 to 1 µM.
For `N#CN1CCC(CNC(=O)c2csc(-c3ccccc3)n2)C1` (stereo not shown) [Example 26, N-((1-cyanopyrrolidin-3-yl)methyl)-2-phenylthiazole-4-carboxamide], the IC50 was 0.1 to 1 µM.
`N#CN1CCC(CNC(=O)c2cc(-c3ccccc3F)n[nH]2)C1` (stereo not shown) [Example 31, N-((1-cyanopyrrolidin-3-yl)methyl)-3-(2-fluorophenyl)-1H-pyrazole-5-carboxamide] showed an IC50 of 0.1 to 1 µM.
For `N#CN1CCC(CNC(=O)c2ncc(-c3ccccc3)o2)C1` (stereo not shown) [Example 38, N-((1-cyanopyrrolidin-3-yl)methyl)-5-phenyloxazole-2-carboxamide], the IC50 was 0.1 to 1 µM.
Molecule `N#CN1CC[C@H](CNC(=O)c2cc(-c3cccc(Cl)c3)no2)C1` [Example 55, (R)-3-(3-chlorophenyl)-N-((1-cyanopyrrolidin-3-yl)methyl)isoxazole-5-carboxamide] has an IC50 of 0.01 to 0.1 µM.
Work on `N#CN1CC[C@H](CNC(=O)c2cc(-c3ccccc3)on2)C1` [Example 58, (R)-N-((1-cyanopyrrolidin-3-yl)methyl)-5-phenylisoxazole-3-carboxamide] yielded an IC50 of 0.1 to 1 µM.
For `N#CN1CC[C@H](CNC(=O)c2nc(-c3ccccc3)cs2)C1` [Example 62, (R)-N-((1-cyanopyrrolidin-3-yl)methyl)-4-phenylthiazole-2-carboxamide], the IC50 was 0.1 to 1 µM.
`N#CN1CC[C@H](CNC(=O)c2ccn(-c3ccccc3)n2)C1` [Example 63, (R)-N-((1-cyanopyrrolidin-3-yl)methyl)-1-phenyl-1H-pyrazole-3-carboxamide] was tested, and the IC50 was 0.1 to 1 µM.
`N#CN1CC[C@H](CNC(=O)c2cnc(-c3ccccc3)[nH]2)C1` [Example 64, (R)-N-((1-cyanopyrrolidin-3-yl)methyl)-2-phenyl-1H-imidazole-5-carboxamide] showed an IC50 of 0.1 to 1 µM.
With `N#CN1CC[C@H](CNC(=O)c2cc(-c3ccccc3Cl)no2)C1` [Example 66, (R)-3-(2-chlorophenyl)-N-((1-cyanopyrrolidin-3-yl)methyl)isoxazole-5-carboxamide] the IC50 was 0.1 to 1 µM.
Molecule `N#CN1CC[C@H](CNC(=O)c2cc(-c3ccc(Cl)cc3)no2)C1` [Example 67, (R)-3-(4-chlorophenyl)-N-((1-cyanopyrrolidin-3-yl)methyl)isoxazole-5-carboxamide] has an IC50 of 0.1 to 1 µM.
`N#Cc1cccc(-c2nnc(C(=O)NC[C@@H]3CCN(C#N)C3)o2)c1` [Example 69, (S)-5-(3-cyanophenyl)-N-((1-cyanopyrrolidin-3-yl)methyl)-1,3,4-oxadiazole-2-carboxamide] gave an IC50 of 0.01 to 0.1 µM.
For `N#Cc1cccc(-n2cnc(C(=O)NC[C@H]3CCN(C#N)C3)c2)c1` [Example 71, (R)-1-(3-cyanophenyl)-N-((1-cyanopyrrolidin-3-yl)methyl)-1H-imidazole-4-carboxamide], the IC50 was 0.01 to 0.1 µM.
Work on `N#Cc1ccc(-n2cnc(C(=O)NC[C@H]3CCN(C#N)C3)c2)cc1` [Example 72, (R)-1-(4-cyanophenyl)-N-((1-cyanopyrrolidin-3-yl)methyl)-1H-imidazole-4-carboxamide] yielded an IC50 of 0.1 to 1 µM.

What follows are molecules tested on Unilateral ureteral obstruction (UUO) kidney fibrosis (assay: Unilateral ureteral obstructive kidney disease model (UUO)). Conditions: UUO, 20 mg/kg IN-1130 QD IP, days 0 to 10.
Type: in vivo
Excerpt: In this study, adult C57B16 female mice at 7 to 8 weeks of age with average weight of around 18 to 20 g were used. To complete the ureteral obstruction, the abdominal cavity was exposed via a midline incision and the left ureter was ligated at two points with 4-0 silk and dissected. Successful unilateral ureteral obstruction was later confirmed by observation of dilation of the renal pelvis due to hydronephrosis.
At harvest, mice were anesthetised and both kidneys were harvested; the contralateral kidney serves as control for the UUO kidney. The kidneys were dissected along median line into two parts, of which one side was fixed in formaldehyde, for paraffin embedding and the other was snap frozen for protein or RNA isolation.
Formalin fixed tissue were embedded in paraffin blocks and cut into 5 μm sections. All damaged kidneys, 5 contralateral kidneys from each group and 3 sham kidneys were analysed (in total n=80 kidney samples). Picrosirius Red and α-SMA stain was performed to evaluate fibrotic changes and myofibroblast activation. Analysis was performed by a pathology trained technical staff member, without knowledge of the animal group assignment. High magnification images were taken of each slide an analysed for the surface area covered by the stain.
`Cc1cccc(-c2[nH]c(Cc3cccc(C(N)=O)c3)nc2-c2ccc3nccnc3c2)n1` [IN-1130, reference compound] gave an In life mortality of 0%.
